Values of other authors in patent US9192673B2, “Fine dry particulate resveratrol active agent compositions and topical formulations including the same” (priority 2013, dated 2015).

Conditions: background statement

Oc1ccc(/C=C/c2cc(O)cc(O)c2)cc1 [resveratrol, 3,5,4′-trihydroxystilbene]
solubility in water and in lipophilic components: almost insoluble
